{"source": "paper PMC10254170", "about": "“Diastereoselective Synthesis of the Borylated D-Galactose Monosaccharide 3-Boronic-3-Deoxy-D-Galactose and Biological Evaluation in Glycosidase Inhibition and in Cancer for Boron Neutron Capture Therapy (BNCT)” (Molecules, 2023)", "origin": "cited, not measured here", "system": "human", "details": "5 min; cited from earlier work", "data": [{"smiles": "c1ccccc1", "note": "[benzene]", "values": [{"measurement": "LCLO", "value": "20,000 ppm"}]}]}
